Experimental data published in publication PMC6376265, “A sequence conserved between CD5 and CD6 binds an FERM domain and exerts a restraint on T‐cell activation” (Immunology, 2018).
Where two headings read alike, the source gives them in different places. Each block holds one molecule with its values, some of them ahead of it. Square brackets hold non-standard residues; d marks the D form. Ends that are not written are not given here. Peptide text beside a SMILES is read from it. * marks the point of attachment. Biotin = O=C1N[C@H]2[C@H](CS[C@H]2CCCCC(=O)*)N1; pY = N[C@@H](Cc1ccc(OP(=O)(O)O)cc1)C(=O)O; pS = N[C@@H](COP(=O)(O)O)C(=O)O

Key:
[1] = target: T1, radixin FERM domain (Mus musculus, UniProt P26043); experiment: Surface plasmon resonance, radixin FERM domain injected over immobilized peptides; assay type: binding; conditions: 37°; for Kd: equilibrium binding; for Binding of radixin FERM domain (in words): non-phosphorylated peptides, Fig. 1a, b
T1 construct: mouse cDNA encoding amino acid residues 1–310, which are 100% identical between mouse and human; GST (cleaved yes); made in house; host or cells: E. coli Rosetta (DE3) pLysS
T1 sequence (P26043 1-310): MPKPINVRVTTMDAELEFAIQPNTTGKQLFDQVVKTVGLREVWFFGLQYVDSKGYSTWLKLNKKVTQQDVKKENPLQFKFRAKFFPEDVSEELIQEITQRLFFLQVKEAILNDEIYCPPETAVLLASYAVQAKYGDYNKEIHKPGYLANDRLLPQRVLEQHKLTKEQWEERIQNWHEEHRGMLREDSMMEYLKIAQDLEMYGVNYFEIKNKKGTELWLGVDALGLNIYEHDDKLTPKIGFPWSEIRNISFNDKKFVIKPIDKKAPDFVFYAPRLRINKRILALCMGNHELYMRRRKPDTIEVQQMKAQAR
Source text: (§1) Peptides representing human sequences and biotinylated at the N terminus were obtained from Peptide Protein Research Ltd (Hampshire, UK): CD5 pSDpSDpY, PDNSpSDpSDpYDLHGAQRL; CD5 SDSDY, PDNSSDSDYDLHGAQRL, CD6 pSDpSDpY, GpSDpSDpYEHYDFSAQ; CD6 SDSDY: GSDSDYEHYDFSAQ; control peptide (CD5), HVDNEYSQPPRNS; ICAM‐2 (NP_001093259 FERM binding site (amino acids 251–275): […].16
Recombinant GST‐tagged FERM domain of radixin constructed from mouse cDNA encoding amino acid residues 1–310, which are 100% identical between mouse and human in the pET49b(+) vector was kindly provided by Toshio Hakoshima (Nara Institute of Science and Technology, Japan).16 Radixin FERM was expressed in Rosetta (DE3) pLysS competent cells (Novagen, Madison, WI) and affinity purified using Glutathione Sepharose 4B (GE Healthcare, Chicago, IL). The GST tag was cleaved with HRV 3C protease (Novagen). Cleaved radixin FERM domains were then further purified using size exclusion chromatography.
For surface plasmon resonance analysis, CD5 pSDpSDpY, CD5 SDSDY, CD6 pSDpSDpY and CD6 SDSDY and ICAM‐2 peptides were immobilized on streptavidin‐coated CM5 chips in a BIAcore 3000 machine. Radixin FERM was injected over the immobilized peptides at 37°. Background signals of radixin FERM over a streptavidin‐coated flow cell were subtracted and equilibrium binding data were fitted using a 1 : 1 Langmuir binding model using GRAPHPAD PRISM 7 software.

[2] = tested on: ERM proteins and NHE‐RF 1 and 2; experiment: Pulldown from Jurkat T-cell lysates with immobilized peptides and mass spectrometry: five ERM and NHE-RF proteins together; assay type: binding
Source text: as §1
Pulldowns and mass spectrometry have been described elsewhere.6 Briefly, peptides CD5 pSDpSDpY, CD6 pSDpSDpY or a control peptide derived from a region around a more proximal cytoplasmic tyrosine of CD5 were immobilized on magnetic beads and used to isolate interacting proteins from Jurkat T‐cell lysates. Interacting proteins were processed, then digested on a filter, and the peptides were loaded onto the Ultimate 300 RSLCnano high‐performance liquid chromatography (Dionex, Sunnyvale, CA) ‐tandem mass spectrometry Q Exactive Orbitrap machine using a 25 cm by 75 μm inner diameter picotip analytical column (New Objective, Woburn, MA) in the central proteomics facilities at the Sir William Dunn School of Pathology, University of Oxford. Spectra analysis was conducted using the MASCOT search engine.17

[3] = target: T2, radixin FERM domain (amino acid residues 1-310) (mouse, UniProt P26043 1-310); experiment: SPR; biotinylated peptides immobilized on streptavidin-coated CM5 chips, BIAcore 3000; radixin FERM injected at 37°; streptavidin flow cell subtracted; equilibrium binding fitted with a 1:1 Langmuir model; conditions: both partners purified
T2 construct: also called Recombinant monomeric radixin FERM; FERM domain of radixin; source: E. coli Rosetta (DE3) pLysS, purified (Glutathione Sepharose 4B, HRV 3C cleavage, size exclusion chromatography)
T2 sequence (P26043 1-310): as above

[4] = SPR BIAcore 3000, biotinylated peptides on streptavidin-coated CM5 chip, 1:1 Langmuir fit, CD5 and CD6: three experiments, read-out: KD

Molecule: PDNSSDSDYDLHGAQRL [CD5 SDSDY]
Binding of radixin FERM domain (in words) ([1]; SPR): weak and did not reach saturation

Molecule: CC(C)C[C@H](NC(=O)[C@H](CCCNC(=N)N)NC(=O)[C@H](CCC(N)=O)NC(=O)[C@H](C)NC(=O)CNC(=O)[C@H](Cc1c[nH]cn1)NC(=O)[C@H](CC(C)C)NC(=O)[C@H](CC(=O)O)NC(=O)[C@H](Cc1ccc(OP(=O)(O)O)cc1)NC(=O)[C@H](CC(=O)O)NC(=O)[C@H](COP(=O)(O)O)NC(=O)[C@H](CC(=O)O)NC(=O)[C@H](COP(=O)(O)O)NC(=O)[C@H](CO)NC(=O)[C@H](CC(N)=O)NC(=O)[C@H](CC(=O)O)NC(=O)[C@@H]1CCCN1)C(=O)O [CD5 pSDpSDpY] (H-PDNS[pS]D[pS]D[pY]DLHGAQRL-OH)
Kd [1, 4]: 1000 to 2000 nM | Kd ([1]; SPR, Fig. 1 panel c, peptides compared with ICAM-2, read-out: KD (Fig. 1c)): 1000 nM

Molecule: HVDNEYSQPPRNS [control peptide, control peptide derived from a region around a more proximal cytoplasmic tyrosine of CD5]
Isolation of the five proteins (in words) [2]: not identified

The remaining lines, values ahead:

Kd [1, 4]: 500 nM
Molecule: C[C@H](NC(=O)[C@H](CO)NC(=O)[C@H](Cc1ccccc1)NC(=O)[C@H](CC(=O)O)NC(=O)[C@H](Cc1ccc(O)cc1)NC(=O)[C@H](Cc1c[nH]cn1)NC(=O)[C@H](CCC(=O)O)NC(=O)[C@H](Cc1ccc(OP(=O)(O)O)cc1)NC(=O)[C@H](CC(=O)O)NC(=O)[C@H](COP(=O)(O)O)NC(=O)[C@H](CC(=O)O)NC(=O)[C@H](COP(=O)(O)O)NC(=O)CN)C(=O)N[C@@H](CCC(N)=O)C(=O)O [CD6 pSDpSDpY] (H-G[pS]D[pS]D[pY]EHYDFSAQ-OH)

Kd [1, 4]: ≥ 200 nM
Molecule: CSCC[C@H](NC(=O)[C@H](CCCNC(=N)N)NC(=O)[C@H](CCC(N)=O)NC(=O)[C@H](CCC(N)=O)NC(=O)[C@H](CCCNC(=N)N)NC(=O)[C@H](CC(C)C)NC(=O)[C@H](Cc1c[nH]cn1)NC(=O)CCCC[C@@H]1SC[C@@H]2NC(=O)N[C@@H]21)C(=O)NCC(=O)N[C@H](C(=O)N[C@@H](Cc1ccc(O)cc1)C(=O)NCC(=O)N[C@H](C(=O)N[C@@H](CCCNC(=N)N)C(=O)N[C@@H](C)C(=O)N[C@@H](C)C(=O)N[C@@H](Cc1c[nH]c2ccccc12)C(=O)N[C@@H](CCCNC(=N)N)C(=O)N[C@@H](CCCNC(=N)N)C(=O)N[C@@H](CC(C)C)C(=O)N1CCC[C@H]1C(=O)N[C@@H](CCC(N)=O)C(=O)N[C@@H](C)C(=O)N[C@@H](Cc1ccccc1)C(=O)N[C@@H](CCCNC(=N)N)C(=O)N1CCC[C@H]1C(=O)O)C(C)C)[C@@H](C)O [ICAM-2, reference compound] (Biotin-HLRQQRMGTYGVRAAWRRLPQAFRP-OH; N-terminus and C-terminus assumed)

Binding of radixin FERM domain (in words) ([1]; SPR): weak and did not reach saturation
Molecule: GSDSDYEHYDFSAQ [CD6 SDSDY]

Kd [3]: 500 to 2000 nM
B1: CD6 pSDpSDpY peptide (peptide)
peptide: Biotin-G[pS]D[pS]D[pY]EHYDFSAQ
notes: also called phosphorylated CD6 SDSDY peptide; source: synthetic peptide; bought: Peptide Protein Research Ltd
